Literature values as cited in patent US20050059682A1, “Compositions and methods for treatment of cancer” (priority 2003, published 2005).

What was measured:
prostate cancer = details: single-agent chemotherapy of prostate cancer
HDAC = details: in vitro or in vivo for SAHA, SBHA, CBHA

Row | Molecule | efficacy as single agent (prostate cancer) | also measured
1 | O=c1[nH]cc(F)c(=O)[nH]1 [5-fluorouracil] | minimal efficacy | 
2 | O=C(/C=C/c1cccc(C(=O)NO)c1)NO [CBHA, m-carboxy-cinnamic acid bishydroxamic acid] |  | concentration at which HDAC is inhibited (HDAC): micromolar concentration or lower
3 | C/C=C1\NC(=O)[C@H]2CSSCC/C=C/[C@H](CC(=O)N[C@H](C(C)C)C(=O)N2)OC(=O)[C@H](C(C)C)NC1=O [FR901228] |  | concentration at which HDAC is inhibited (HDAC): micromolar concentrations
4 | CC(/C=C/C(=O)NO)=C\[C@@H](C)C(=O)c1ccc(N(C)C)cc1 [TSA, trichostatin A] |  | inhibition of mammalian HDAC (mammalian HDAC): potent inhibitor
5 | N.N.[Cl][Pt][Cl] [cisplatin] | minimal efficacy | 
6 | O=P1(N(CCCl)CCCl)NCCCO1 (stereo not shown) [cyclophosphamide] | minimal efficacy | 
7 | Nc1ncn([C@H]2C[C@H](O)[C@@H](CO)O2)c(=O)n1 [decitabine, 5-aza-2′-deoxycytidine] |  | half life in vivo: short half life; tissue distribution (in vivo): excellent tissue distribution
8 | COc1cccc2c1C(=O)c1c(O)c3c(c(O)c1C2=O)C[C@@](O)(C(=O)CO)C[C@@H]3O[C@H]1C[C@H](N)[C@H](O)[C@H](C)O1 [doxorubicin] | minimal efficacy | 
9 | C[C@]12CC[C@@H]3c4ccc(OC(=O)N(CCCl)CCCl)cc4CC[C@H]3[C@@H]1CC[C@@H]2O [estramustine] | minimal efficacy | 
10 | CN(Cc1cnc2nc(N)nc(N)c2n1)c1ccc(C(=O)N[C@@H](CCC(=O)O)C(=O)O)cc1 [methotrexate] | minimal efficacy | 
11 | O=C1c2c(O)ccc(O)c2C(=O)c2c(NCCNCCO)ccc(NCCNCCO)c21 [mitoxantrone] | minimal efficacy | 
12 | depudecin |  | concentration at which HDAC is inhibited (HDAC): micromolar concentrations
